Experimental data taken from patent publication US7271252B2, “Reagents for detecting efavirenz” (Roche Diagnostics Operations, Inc., priority 2003, dated 2007).
Where two headings read alike, the source gives them in different places.

Assays:
[1] = test system: serum antibodies raised against efavirenz-KLH conjugate; test: Competitive inhibition ELISA: binding of mouse serum antibody to N-linked BSA-efavirenz conjugate; design: species or system mice; details: free drug, serum of one mouse, OD450, FIG. 3
Procedure: The sera were titered for antibody activity via an antigen specific ELISA. Wells of a styrene 96-well plate were coated with efavirenz N-linked BSA conjugate 5 by placing 50 μL of a 0.1 μg/mL efavirenz-BSA conjugate solution into 0.1 M potassium carbonate, pH 9.2, in the wells and incubating the covered plate at 37° C. for 1 hour. The solution was removed, and the wells were immediately filled with a post coat solution consisting of 1% gelatin hydrolysate, 2% sucrose, 0.1 M Tris buffer, pH 7.4, and 0.15% TWEEN 20 (all reagents from Sigma Chemical Co.), covered and incubated as above. Subsequently, the plates were rinsed once with 2% sucrose and air-dried. Once dry, the plates were sealed into aluminum foil clad plastic bags with a desiccant and stored at 4° C. until used.
Titering consisted of preparing an initial 1:100 dilution of the sera in PBS-T, then seven serial 1:3 dilutions. […] Color that developed was read in a microplate reader equipped with a 450 nm filter. The color intensities were plotted versus the final serum dilutions, and the dilution point at which 50% of the maximum reading was obtained was recorded.
For determining competitive inhibition, plates treated as above were used. […] Serum dilutions of twice the concentration determined above were then prepared, and 25 μL was placed into each well of the column. […]

HIV [2] = details: cited from earlier work
HIV [3] = details: cited from earlier work; remark: listed apart in the source
[4] = cited from earlier work
[5] = taken with other anti-HIV medicines

In the case of `O=C1Nc2ccc(Cl)cc2[C@@](C#CC2CC2)(C(F)(F)F)O1` [efavirenz], the “competitive inhibition of binding of serum antibodies to the drug conjugate absorbed to the microplate” value [1] is given as “confers a competitive inhibition of binding”, the “virological failure, share of patients” value (HIV [2]; patients with low plasma levels of efavirenz, <1000 μg/L, 85 total patients) is given as 50% and the “virological failure, share of patients” value (HIV [2]; patients with plasma levels of efavirenz 1000-4000 μg/L or more than 4000 μg/L) is given as 18-22%. For the same compound, the “amount of HIV in the blood (viral load)” value (HIV [3]; efavirenz) was “lower the amount of HIV in the blood”, the CD4 cell count (HIV [3]; [5]) was “increase their CD4 cell count” and the “patients' viral load” value (HIV [3]; [5]) was “reduce patients' viral load”. The “frequency of CNS toxicity at high versus mid plasma levels” value ([4]; efavirenz levels >4000 μg/L compared with 1000-4000 μg/L) was “approximately three times more frequent”, the “patients reporting central nervous system (CNS) side effects” value ([4]; human, in vivo) was 20-40% and the “patients who discontinue therapy because of severity or persistence of CNS side effects” value ([4]; human, in vivo) was “about 4%”.
